Assay [1] concerns the target GDP-bound KRAS protein (aa 1-169), containing both G12D and C118A amino acid substitutions (Homo sapiens, UniProt P01116, C118A/G12D). As to the kind of experiment: KRAS G12D Coupled Nucleotide Exchange Assay. The class given is biochemical. The settings on record: 2 h compound pre-incubation. The method, then:
Following compound pre-incubation, purified SOS protein (aa 564-1049) and GTP (Roche 10106399001) were added to the assay wells and incubated for an additional 30 min. […] The assay plates were then read on a PerkinElmer EnVision Multilabel Reader, using AlphaScreen® technology, and data were analyzed using a 4-parameter logistic model to calculate IC50 values.

Assay [2] deals with Phosphorylation of ERK1/2 in A-427 cells. As to the kind of experiment: Phospho-ERK1/2 MSD Assay (A-427 cells). The class given is cell-based. The conditions noted are these: Homo sapiens, A-427, 2 h, 2 h treatment, read-out: p-ERK (A427 cells) IC50. An outline of the steps:
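ERK1/2 phosphorylation measured by Meso Scale whole-cell lysate assay after A-427 cells were exposed to a titration of compound for 2 h at 37 °C.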

Assay [3] has as its target His-tagged KRAS G12D protein (Homo sapiens, UniProt P01116, G12D). As to the kind of experiment: KRAS G12D TR-FRET Assay. The class given is binding. (Time-resolved FRET reads energy transfer from a long-lived donor to a nearby acceptor.)
For assay [4], the system named is Phosphorylation of ERK1/2 in AsPC-1 cells. As to the kind of experiment: Phospho-ERK1/2 MSD Assay (AsPC-1 cells). In kind it is cell-based. The conditions noted are these: Homo sapiens, ASPC1, 2 h, 2 hours treatment, read-out: p-ERK (AsPC-1 cells) IC50. A digest of the protocol:
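Read-out: MSD electrochemiluminescent detection of phosphorylated ERK1/2 in whole-cell lysates, fitted to a 4-parameter logistic curve for IC50. Prior to lysis, AsPC-1 cells (25,000 per well) received a 2 h compound dose-response at 37 °C.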

Data on 15 compounds can be found in patent US20250059205A1, “Heterocyclic Compounds and Methods of Use” (AMGEN INC., priority 2021, published 2025).

Sequence of His-tagged KRAS G12D protein (P01116 1-188 isoform P01116-2 G12D): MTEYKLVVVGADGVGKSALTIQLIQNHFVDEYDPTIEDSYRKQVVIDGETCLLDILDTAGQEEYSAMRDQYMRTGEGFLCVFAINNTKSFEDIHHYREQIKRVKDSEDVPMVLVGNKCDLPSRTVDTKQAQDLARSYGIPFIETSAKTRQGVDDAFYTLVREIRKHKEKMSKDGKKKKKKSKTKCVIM
Sequence of GDP-bound KRAS protein (aa 1-169), containing both G12D and C118A amino acid substitutions (P01116 1-169 isoform P01116-2 G12D/C118A): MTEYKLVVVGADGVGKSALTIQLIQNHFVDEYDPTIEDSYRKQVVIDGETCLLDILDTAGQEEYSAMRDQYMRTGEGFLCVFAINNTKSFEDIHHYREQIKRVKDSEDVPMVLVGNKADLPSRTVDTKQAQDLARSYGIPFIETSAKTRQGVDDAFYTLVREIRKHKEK

By IC50 is commonly meant the concentration that gives 50% inhibition. With `Nc1cc(-c2ccc3c(N4[C@@H]5CC[C@H]4CNC5)nc(OC[C@@]45CCCN4C[C@H](F)C5)nc3c2F)c2ccccc2c1` [Example 26, 4-(4-((1R,5S)-3,8-diazabicyclo[3.2. 1]octan-8-yl)-8-fluoro-2-(((2R,7aS)-2-fluorotetrahydro-1H-pyrrolizin-7a(5H)-yl)methoxy)quinazolin-7-yl)naphthalen-2-amine], the “Avg 2 h Coupled Exchange IC50” value in assay [1] amounted to 18 nM. Further, the IC50 was 1110 nM in assay [2], 34 nM in assay [3] and 692 nM in assay [4].
In the case of `Oc1cc(-c2ccc3c(N4C[C@H]5CC[C@@H](C4)N5)nc(OC[C@@]45CCCN4C[C@H](F)C5)nc3c2F)c2c(Cl)cccc2c1` [Example 56, 4-(4-((1R,5S)-3,8-diazabicyclo[3.2. 1]octan-3-yl)-8-fluoro-2-(((2R,7aS)-2-fluorotetrahydro-1H-pyrrolizin-7a(5H)-yl)methoxy)quinazolin-7-yl)-5-chloronaphthalen-2-ol], in assay [1], the “Avg 2 h Coupled Exchange IC50” value came to 4 nM. Moreover, the concentration for half-maximal inhibition (IC50) in assay [2] amounted to 23 nM; in assay [3] it was 5 nM; in assay [4], 109 nM.
Turning to `CCc1c(F)ccc2cc(O)cc(-c3c(O)cc4c(N5C[C@H]6CC[C@@H](C5)N6)nc(OC[C@@]56CCCN5C[C@H](F)C6)nc4c3F)c12` [Example 199, 4-((1R,5S)-3,8-Diazabicyclo[3.2.1]octan-3-yl)-7-(8-ethyl-7-fluoro-3-hydroxynaphthalen-1-yl)-8-fluoro-2-(((2R,7aS)-2-fluorotetrahydro-1H-pyrrolizin-7a(5H)-yl)methoxy)quinazolin-6-ol], in assay [1], the “Avg 2 h Coupled Exchange IC50” value turned out to be 4 nM. The concentration for half-maximal inhibition (IC50) is 9 nM in assay [2], 3 nM in assay [3] and 70 nM in assay [4].
Regarding `CCc1c(F)ccc2cc(O)cc(-c3ccc4c(N5[C@@H]6CC[C@H]5CNC6)nc(OC[C@@]56CCCN5C[C@H](F)C6)nc4c3C)c12` [Example 161, 4-(4-((1R,5S)-3,8-diazabicyclo[3.2.1]octan-8-yl)-2-(((2R,7aS)-2-fluorotetrahydro-1H-pyrrolizin-7a(5H)-yl)methoxy)-8-methylquinazolin-7-yl)-5-ethyl-6-fluoronaphthalen-2-ol], the “Avg 2 h Coupled Exchange IC50” value in assay [1] was found to be 79 nM. Also, the results for the IC50 in assay [2], in assay [3] and in assay [4] were 10000 nM, 75 nM and 9750 nM, respectively.
Consider `CCc1c(F)ccc2cc(O)cc(-c3c(Cl)cc4c(N5C[C@H]6CC[C@@H](C5)N6)nc(OC[C@@]56CCCN5C[C@H](F)C6)nc4c3F)c12` [Example 134, 4-(4-((1R,5S)-3,8-diazabicyclo[3.2.1]octan-3-yl)-6-chloro-8-fluoro-2-(((2R,7aS)-2-fluorotetrahydro-1H-pyrrolizin-7a(5H)-yl)methoxy)quinazolin-7-yl)-5-ethyl-6-fluoronaphthalen-2-ol], for which the “Avg 2 h Coupled Exchange IC50” value in assay [1] was determined as 7 nM. Further, the IC50 came to 57 nM in assay [2], 4 nM in assay [3] and 74 nM in assay [4].
In the case of `CCc1c(F)ccc2cccc(-c3ccc4c(N5C[C@H]6CC[C@@H](C5)N6)nc(OC[C@@]56CCCN5C[C@H](F)C6)nc4c3C)c12` [Example 58, 4-((1R,5S)-3,8-diazabicyclo[3.2. 1]octan-3-yl)-7-(8-ethyl-7-fluoronaphthalen-1-yl)-2-(((2R,7aS)-2-fluorotetrahydro-1H-pyrrolizin-7a(5H)-yl)methoxy)-8-methylquinazolin], the “Avg 2 h Coupled Exchange IC50” value in assay [1] is 5 nM. The IC50 in assay [2] came to 4190 nM; in assay [3], 6 nM; in assay [4] it was 2460 nM.
With `Fc1c(-c2c(C3CC3)ccc3[nH]ncc23)ccc2c(N3C[C@H]4CC[C@@H](C3)N4)nc(OC[C@@]34CCCN3C[C@H](F)C4)nc12` [Example 193, 4-((1R,5S)-3,8-diazabicyclo[3.2.1]octan-3-yl)-7-(5-cyclopropyl-1H-indazol-4-yl)-8-fluoro-2-(((2R,7aS)-2-fluorotetrahydro-1H-pyrrolizin-7a(5H)-yl)methoxy) quinazoline], the “Avg 2 h Coupled Exchange IC50” value in assay [1] came to 10 nM. The IC50 was 482 nM in assay [2], 15 nM in assay [3] and 1080 nM in assay [4].
Regarding `Oc1cc(-c2c(F)cc3c(N4C[C@H]5CC[C@@H](C4)N5)nc(OC[C@@]45CCCN4C[C@H](F)C5)nc3c2F)c2c(F)c(F)ccc2c1` [Example 84, 4-(4-((1R,5S)-3,8-diazabicyclo[3.2. 1]octan-3-yl)-6,8-difluoro-2-(((2R,7aS)-2-fluorotetrahydro-1H-pyrrolizin-7a(5H)-yl)methoxy)quinazolin-7-yl)-5,6-difluoronaphthalen-2-ol], in assay [1], the “Avg 2 h Coupled Exchange IC50” value came out at 4 nM. Further, the 50% inhibitory concentration (IC50) in assay [2] is 5 nM; in assay [3], 4 nM; in assay [4] it was 22 nM.
For `Cc1cccc2cccc(-c3ccc4c(N5[C@@H]6CC[C@H]5CNC6)nc(OC[C@@]56CCCN5C[C@H](F)C6)nc4c3F)c12` [Example 28, 4-((1R,5S)-3,8-diazabicyclo[3.2. 1]octan-8-yl)-8-fluoro-2-(((2R,7aS)-2-fluorotetrahydro-1H-pyrrolizin-7a(5H)-yl)methoxy)-7-(8-methylnaphthalen-1-yl)quinazoline], the “Avg 2 h Coupled Exchange IC50” value in assay [1] came to 44 nM. Also, the IC50 in assay [2] was greater than 10000 nM; in assay [3], 90 nM; in assay [4] it was 3610 nM.
Turning to `Fc1cc2c(N3[C@@H]4CC[C@H]3CNC4)nc(OC[C@@]34CCCN3C[C@H](F)C4)nc2c(F)c1-c1cccc2cccc(Cl)c12` [Example 22, 4-((1R,5S)-3,8-diazabicyclo[3.2. 1]octan-8-yl)-7-(8-chloronaphthalen-1-yl)-6,8-difluoro-2-(((2R,7aS)-2-fluorotetrahydro-1H-pyrrolizin-7a(5H)-yl)methoxy) quinazoline], the “Avg 2 h Coupled Exchange IC50” value in assay [1] was determined as 14 nM. Further, the IC50 stood at 2660 nM in assay [2], 17 nM in assay [3] and 2350 nM in assay [4].
Consider `CCc1c(F)ccc2cc(O)cc(-c3c(N)cc4c(N5C[C@H]6CC[C@@H](C5)N6)nc(OC[C@@]56CCCN5C[C@H](F)C6)nc4c3F)c12` [Example 202, 4-(6-Amino-4-((1R,5S)-3,8-diazabicyclo[3.2.1]octan-3-yl)-8-fluoro-2-(((2R,7aS)-2-fluorotetrahydro-1H-pyrrolizin-7a(5H)-yl)methoxy)quinazolin-7-yl)-5-ethyl-6-fluoronaphthalen-2-ol], for which the “Avg 2 h Coupled Exchange IC50” value in assay [1] was 4 nM. Moreover, the half-inhibitory concentration (IC50) in assay [2] was determined as 9 nM; in assay [3] it was 4 nM; in assay [4], 175 nM.
Regarding `CCc1c(F)ccc2cc(O)cc(-c3c(Cl)cc4c(N5C[C@@H]6CC[C@H]5CN6)nc(OC[C@@]56CCCN5C[C@H](F)C6)nc4c3F)c12` [Example 129, 4-(4-((1S,4S)-2,5-diazabicyclo[2.2.2]octan-2-yl)-6-chloro-8-fluoro-2-(((2R,7aS)-2-fluorotetrahydro-1H-pyrrolizin-7a(5H)-yl)methoxy)quinazolin-7-yl)-5-ethyl-6-fluoronaphthalen-2-ol], in assay [1], the “Avg 2 h Coupled Exchange IC50” value was 5 nM. The half-maximal inhibitory concentration (IC50) was determined as 29 nM in assay [2], 4 nM in assay [3] and 83 nM in assay [4].
For `N#Cc1cccc2cc(O)cc(-c3ccc4c(N5C[C@H]6CC[C@@H](C5)N6)nc(OC[C@@]56CCCN5C[C@H](F)C6)nc4c3F)c12` [Example 205, 8-(4-((1R,5S)-3,8-Diazabicyclo[3.2.1]octan-3-yl)-8-fluoro-2-(((2R,7aS)-2-fluorotetrahydro-1H-pyrrolizin-7a(5H)-yl)methoxy)quinazolin-7-yl)-6-hydroxy-1-naphthonitrile], in that order: 7 nM, 71 nM, 6 nM and 293 nM.
`C#Cc1c(F)ccc2cc(O)cc(-c3cc4nc(OC[C@@]56CCCN5C[C@H](F)C6)nc(N5C[C@H]6CC[C@@H](C5)N6)c4cc3F)c12` [Example 181, 4-(4-((1R,5S)-3,8-diazabicyclo[3.2.1]octan-3-yl)-6-fluoro-2-(((2R,7aS)-2-fluorotetrahydro-1H-pyrrolizin-7a(5H)-yl)methoxy)quinazolin-7-yl)-5-ethynyl-6-fluoronaphthalen-2-ol]: the “Avg 2 h Coupled Exchange IC50” value in assay [1] stood at 1 nM. The figures for the 50% inhibitory concentration (IC50) in assay [2], in assay [3] and in assay [4] were 3 nM, 1 nM and 18 nM, respectively.
Regarding `Cc1ccc2cnn(C)c2c1-c1c(Cl)cc2c(N3C[C@H]4CC[C@@H](C3)N4)nc(OC[C@@]34CCCN3C[C@H](F)C4)nc2c1F` [Example 76, 4-((1R,5S)-3,8-diazabicyclo[3.2. 1]octan-3-yl)-6-chloro-7-(1,6-dimethyl-1H-indazol-7-yl)-8-fluoro-2-(((2R,7aS)-2-fluorotetrahydro-1H-pyrrolizin-7a(5H)-yl)methoxy) quinazoline], the “Avg 2 h Coupled Exchange IC50” value in assay [1] amounted to 8 nM. The IC50 in assay [2] came out at 191 nM; in assay [3] it was 10 nM; in assay [4], 674 nM.
